The subject of assay [1] is guinea pig platelets. Description: In vitro inhibition of collagen-induced platelet aggregation, guinea pig platelets (PRP). The class given is cell-based, guinea pig (male Dunkin-Hartley). Particulars: collagen 1 μg/ml, 3 minutes of contact at 37° C. The method, then:
(§1) A study of the inhibitory activity of the compounds of formula I on platelet aggregation was carried out in vitro, i.e. by direct contact of solutions of variable concentrations of the compounds with platelets freshly separated from a sample of total blood, taken under standardized conditions, from laboratory animals (guinea pigs) and from healthy human subjects who have not received any substances or drugs that might interfere with blood clotting. The anti-platelet-aggregating activity was also studied ex vivo/vitro, i.e. after administration of the substances claimed to guinea pigs to measure the intensity and duration of the anti-aggregating action induced by the fraction of the test product absorbed and circulating in the blood.
Blood is taken by intracardiac puncture from male Dunkin-Hartley guinea pigs (weighing about 330 g), at a rate of 4.5 ml per 0.5 ml of trisodium citrate (concentration of the aqueous solution: 1.55%) in order to prevent all trace of clotting. The platelet-rich plasma (PRP) is obtained by centrifuging the tubes of total blood for 15 minutes at 150 g.
The PRPs are collected as "pools". The platelets contained in these pools are counted using a Coulter ZM haematology automatic device: if necessary, a dilution is carried out in order for the platelet concentration in the plasma to be between 200,000 and 400,000 platelets/mm^3. Simultaneously, other samples of these pools serve to prepare the platelet-poor plasma (PPP) by centrifugation at 1500 g for 15 minutes.
The kinetic study of the platelet aggregation is carried out by adding a collagen solution (1 μg/ml) to a volume of PRP, using a Chrono-log Corporation aggregometer (490-D1 or 560 VS) which uses an optical detection of the appearance of the thrombus.
The measurements of the aggregation inhibition are carried out after 3 minutes of contact at 37° C. with agitation.

The test system of assay [2] is guinea pig platelets. Description: Ex vivo/vitro inhibition of platelet aggregation after administration via the gastric route in guinea pigs. Also noted: species or system guinea pig (Dunkin-Hartley). Particulars: fasted guinea pigs; for inhibition at 150 mg/kg / inhibition at 10 mg/kg: Cavia porcellus, Platelet. The method, then: as §1, with “blood. Evaluation of the anti-platelet-aggregating activity of the compounds is carried out in the same guinea pigs as those mentioned above (Dunkin-Hartley strain). […] The allocation of the treatments to the animals is random. The blood is taken and then treated under the same conditions as those described above for the in vitro studies. The results of the inhibition of the platelet aggregation obtained for each test concentration make it possible to calculate the IC50 concentration of each test product and the kinetics of the inhibitory effect and its duration of action.” for “blood.”

[3] abbreviates: Cavia porcellus, Platelet, 0.05 h.
Where [4] appears, read: 1 h before blood sampling, read-out: % of g.r. inhibition guinea pig ex vivo, d = 150 mg/kg, 1 h.
Setting [5] is: 2 h before blood sampling, read-out: % of g.r. inhibition guinea pig ex vivo, d = 150 mg/kg, 2 h.
Setting [6] is: 10 mg/kg, 1 h before blood sampling, read-out: % of g.r. inhibition guinea pig ex vivo, d = 10 mg/kg, 1 h.
Setting [7] is: 10 mg/kg, 2 h before blood sampling, read-out: % of g.r. inhibition guinea pig ex vivo, d = 10 mg/kg, 2 h.

Structures can show the parent of a compound that is named as a salt. Where two headings read alike, the source gives them in different places.

In the case of `COc1ccc(C(CC(=O)O)NC(=O)CNC(=O)C(CCC2CCNCC2)CCC2CCNCC2)cc1` (stereo not drawn) [Example 7, 3-(4-Methoxyphenyl)-3-{[2-({4-(4-piperidyl)-2-[2-(4-piperidyl)ethyl]butanoyl}amino)acetyl]amino}propanoic Acid Dihydrochloride], in the assay on guinea pig platelets [1] (setting [3]), the 50% inhibitory concentration (IC50) (commonly the point on the concentration scale where inhibition reaches its midpoint) is 10000 nM. For the same molecule, the values for the inhibition at 150 mg/kg in the assay with guinea pig platelets [2] (setting [4]) and in the assay with guinea pig platelets [2] (setting [5]) were -39% and 0%, respectively.

As for `O=C(O)COc1cccc(C(CC(=O)O)NC(=O)CNC(=O)C(CCC2CCNCC2)CCC2CCNCC2)c1` (stereo not drawn) [Example 9, 3-[(3-Carboxymethoxy)phenyl]-3-{[2-({4-(4-piperidyl)-2-[2-(4-piperidyl)ethyl]butanoyl}amino)acetyl]amino}-propanoic Acid Dihydrochloride], the IC50 in the assay with guinea pig platelets [1] (setting [3]) was 5000 nM. Further, the inhibition at 150 mg/kg in the assay on guinea pig platelets [2] (setting [4]) was -53%; with guinea pig platelets [2] (setting [5]), -5%.

For the molecule `O=C(CNC(=O)C(CCC1CCNCC1)CCC1CCNCC1)NCC(NC(=O)c1ccc2c(c1)OCO2)C(=O)O` (stereo not drawn) [Example 25, 2-[(1,3-Benzodioxol-5-ylcarbonyl)amino]-3-{[2-({4-(4-piperidyl)-2-[2-(4-piperidyl)ethyl]butanoyl}amino)acetyl]amino}propanoic Acid Dihydrochloride], the concentration for half-maximal inhibition (IC50) with guinea pig platelets [1] (setting [3]) was 29000 nM. Besides, the inhibition at 150 mg/kg is -33% with guinea pig platelets [2] (setting [4]) and -48% with guinea pig platelets [2] (setting [5]).

With `CS(=O)(=O)c1ccc(S(=O)(=O)NC(CNC(=O)CNC(=O)C(CCC2CCNCC2)CCC2CCNCC2)C(=O)O)cc1` (stereo not drawn) [Example 32, 2-({[4-(Methylsulphonyl)phenyl]sulphonyl}amino)-3-{[2-({4-(4-piperidyl)-2-[2-(4-piperidyl)ethyl]butanoyl}amino)acetyl]amino}propanoic Acid Dihydrochloride], half-maximal inhibition in the assay on guinea pig platelets [1] (setting [3]) (IC50) was put at 12000 nM. Further, the inhibition at 10 mg/kg in the assay with guinea pig platelets [2] (setting [6]) and in the assay on guinea pig platelets [2] (setting [7]) was -8% in each case.

For `Cc1ccc(S(=O)(=O)NC(CNC(=O)CNC(=O)C(CCC2CCNCC2)CCC2CCNCC2)C(=O)O)cc1` (stereo not drawn) [Example 39, 2-{[(4-Methylphenyl)sulphonyl]amino}-3-{[2-({4-(4-piperidyl)-2-[2-(4-piperidyl)ethyl]butanoyl}amino)acetyl]amino}propanoic Acid Dihydrochloride], it took 250 nM to reach half-maximal inhibition with guinea pig platelets [1] (setting [3]) (IC50). Moreover, the inhibition at 10 mg/kg in the assay with guinea pig platelets [2] (setting [6]) is -32%; with guinea pig platelets [2] (setting [7]), -10%.

As to `Cc1cccc(S(=O)(=O)NC(CNC(=O)CNC(=O)C(CCC2CCNCC2)CCC2CCNCC2)C(=O)O)c1` (stereo not drawn) [Example 40, 2-{[(3-Methylphenyl)sulphonyl]amino}-3-{[2-({4-(4-piperidyl)-2-[2-(4-piperidyl)ethyl]butanoyl}amino)acetyl]amino}propanoic Acid Dihydrochloride], the IC50 in the assay with guinea pig platelets [1] (setting [3]) was 400 nM. Also, the inhibition at 10 mg/kg in the assay on guinea pig platelets [2] (setting [6]) was -32%; in the assay on guinea pig platelets [2] (setting [7]) it was -10%.

In the assay with guinea pig platelets [1] (setting [3]), `O=C(CNC(=O)C(CCC1CCNCC1)CCC1CCNCC1)NCC(NS(=O)(=O)Cc1ccccc1)C(=O)O` (stereo not drawn) [Example 41, 2-[(Benzylsulphonyl)amino]-3-{[2-({4-(4-piperidyl)-2-[2-(4-piperidyl)ethyl]butanoyl}amino)acetyl]amino}propanoic Acid Dihydrochloride] registered a 50% inhibitory concentration (IC50) of 8600 nM. Besides, the inhibition at 10 mg/kg in the assay with guinea pig platelets [2] (setting [6]) is 13%; with guinea pig platelets [2] (setting [7]), 1%.

In turn, `O=C(CNC(=O)C(CCC1CCNCC1)CCC1CCNCC1)NCC(NS(=O)(=O)/C=C/c1ccccc1)C(=O)O` (stereo not drawn) [Example 42, 2-({[(E)-2-Phenylethenyl]sulphonyl}amino)-3-{[2-({4-(4-piperidyl)-2-[2-(4-piperidyl)ethyl]butanoyl}amino)acetyl]amino}propanoic Acid Dihydrochloride] registered a half-maximal inhibitory concentration (IC50) in the assay on guinea pig platelets [1] (setting [3]) of 420 nM. Besides, the figures for the inhibition at 10 mg/kg with guinea pig platelets [2] (setting [6]) and with guinea pig platelets [2] (setting [7]) were -14% and -26%, respectively.

In turn, `Cl.Cl.O=C(CNC(=O)C(CCC1CCNCC1)CCC1CCNCC1)NCC(NS(=O)(=O)CCc1ccccc1)C(=O)O` (stereo not drawn) [Example 43, 2-[(2-Phenethylsulphonyl)amino]-3-{[2-({4-(4-piperidyl)-2-[2-(4-piperidyl)ethyl]butanoyl}amino)acetyl]amino}propanoic Acid Dihydrochloride] showed a half-maximal inhibitory concentration (IC50) in the assay with guinea pig platelets [1] of 1200 nM. The “% of g.r. inhibition guinea pig ex vivo, d = 10 mg/kg, 1 h” value with guinea pig platelets [2] (10 mg/kg, 1 h before blood sampling) is recorded as -15%. Also, the “% of g.r. inhibition guinea pig ex vivo, d = 10 mg/kg, 2 h” value with guinea pig platelets [2] (10 mg/kg, 2 h before blood sampling) is -4%.

Take `O=C(CNC(=O)C(CCC1CCNCC1)CCC1CCNCC1)NCC(NS(=O)(=O)c1cccc(C(F)(F)F)c1)C(=O)O` (stereo not drawn) [Example 44, 2-({[3-(Trifluoromethyl)phenyl]sulphonyl}amino)-3-{[2-({4-(4-piperidyl)-2-[2-(4-piperidyl)ethyl]butanoyl}amino)acetyl]amino}propanoic Acid Dihydrochloride]: the IC50 in the assay with guinea pig platelets [1] (setting [3]) turned out to be 510 nM. Also, the inhibition at 10 mg/kg in the assay on guinea pig platelets [2] (setting [6]) was -22%; with guinea pig platelets [2] (setting [7]) it was -35%.

In turn, `O=C(CNC(=O)C(CCC1CCNCC1)CCC1CCNCC1)NCC(NS(=O)(=O)c1cccc([N+](=O)[O-])c1)C(=O)O` (stereo not drawn) [Example 45, 2-{[(3-Nitrophenyl)sulphonyl]amino}-3-{[2-({4-(4-piperidyl)-2-[2-(4-piperidyl)ethyl]butanoyl}amino)acetyl]amino}propanoic Acid Dihydrochloride] registered an IC50 with guinea pig platelets [1] (setting [3]) of 500 nM. For the same molecule, the inhibition at 10 mg/kg with guinea pig platelets [2] (setting [6]) is -36%; in the assay on guinea pig platelets [2] (setting [7]) it was -51%.

Molecule `COc1ccc(S(=O)(=O)NC(CNC(=O)CNC(=O)C(CCC2CCNCC2)CCC2CCNCC2)C(=O)O)cc1` (stereo not drawn) [Example 46, 2-{[(4-Methoxyphenyl)sulphonyl]amino}-3-{[2-({4-(4-piperidyl)-2-[2-(4-piperidyl)ethyl]butanoyl}amino)acetyl]amino}propanoic Acid Dihydrochloride] returned an IC50 in the assay on guinea pig platelets [1] (setting [3]) of 380 nM. Also, the results for the inhibition at 10 mg/kg in the assay with guinea pig platelets [2] (setting [6]) and in the assay on guinea pig platelets [2] (setting [7]) were -18% and -31%, respectively.

Molecule `O=C(CNC(=O)C(CCC1CCNCC1)CCC1CCNCC1)NCC(NS(=O)(=O)c1cccc2cccnc12)C(=O)O` (stereo not drawn) [Example 47, 2-[(8-Quinolinylsulphonyl)amino]-3-{[2-({4-(4-piperidyl)-2-[2-(4-piperidyl)ethyl]butanoyl}amino)acetyl]amino}propanoic Acid Trihydrochloride] yielded an IC50 with guinea pig platelets [1] (setting [3]) of 1900 nM. For the same molecule, the results for the inhibition at 10 mg/kg with guinea pig platelets [2] (setting [6]) and in the assay on guinea pig platelets [2] (setting [7]) were -4% and -17%, respectively.

`Cc1noc(C)c1S(=O)(=O)NC(CNC(=O)CNC(=O)C(CCC1CCNCC1)CCC1CCNCC1)C(=O)O` (stereo not drawn) [Example 48, 2-{[(3,5-Dimethyl-4-isoxazolyl)sulphonyl]amino}-3-{[2-({4-(4-piperidyl)-2-[2-(4-piperidyl)ethyl]butanoyl}amino)acetyl]amino}propanoic Acid Dihydrochloride] had a half-inhibitory concentration (IC50) in the assay with guinea pig platelets [1] (setting [3]) of 420 nM. The inhibition at 10 mg/kg in the assay with guinea pig platelets [2] (setting [6]) was -61%; with guinea pig platelets [2] (setting [7]), -15%.

The molecule `CC(=O)Nc1nc(C)c(S(=O)(=O)NC(CNC(=O)CNC(=O)C(CCC2CCNCC2)CCC2CCNCC2)C(=O)O)s1` (stereo not drawn) [Example 50, 2-({[2-(Acetylamino)-4-methyl-1,3-thiazol-5-yl]sulphonyl}amino)-3-{[2-({4-(4-piperidyl)-2-[2-(4-piperidyl)ethyl]butanoyl}amino)acetyl]amino}propanoic Acid Dihydrochloride] registered a half-maximal inhibitory concentration (IC50) in the assay on guinea pig platelets [1] (setting [3]) of 3300 nM. Further, the inhibition at 10 mg/kg with guinea pig platelets [2] (setting [6]) is -22%; with guinea pig platelets [2] (setting [7]), -39%.

In the case of `O=C(CNC(=O)C(CCC1CCNCC1)CCC1CCNCC1)NC[C@H](NS(=O)(=O)CCCCl)C(=O)O` [Example 51, 2-{[(3-Chloropropyl)sulphonyl]amino}-3-{[2-({4-(4-piperidyl)-2-[2-(4-piperidyl)ethyl]butanoyl}amino)acetyl]amino}propanoic Acid Dihydrochloride], in the assay with guinea pig platelets [1] (setting [3]), the IC50 was found to be 11000 nM. Moreover, the values for the inhibition at 10 mg/kg with guinea pig platelets [2] (setting [6]) and with guinea pig platelets [2] (setting [7]) were 4% and -21%, respectively.

Values taken from patent US6333338A, “Bispiperidines as antithrombotic agents” (Laboratoire L. Lafon, priority 1998, dated 2001).
